Data from US11781160B2, “Methods for the production of methacrylates” (priority 2018, dated 2023).

Columns and labels:
[1] = test system: E. coli BW25113 isolate 2-rob(R156H) rpoC(L361R) ilvN(C41Y) ygbK(A294E) IpxM(168_185del); assay: Growth kinetics of isolated strain 2 with 20% v/v BMA
E. coli MG1655 = assay: Growth in MSX medium with 20% (v/v) BMA, wild type; assay type: cell-based, Escherichia coli
[2] = test system: gene transcription in strain 22; assay: Transcriptome analysis with added BMA, strain 22
Method: (§1) Transcriptome analysis was carried out to characterize transcriptional activity in mutant microorganisms using standard methods.
(§2) Sample Preparation • 1) Streak strains onto fresh MSX agar (15 g/L) plates directly from the cryostocks and incubate overnight at 37° C. • 2) Isolate single colonies and inoculate pre-cultures in MSX, using 50 ml shake flasks. Incubate overnight at 37° C. and 250 rpm. • 3) Inoculate cultures in MSX to an initial OD600 of 0.05, using 250 mL pyrex shake flasks with 24/29 neck join. Incubate at 37° C. and 250 rpm. Do 4 biological replicates (3 replicates for sequencing plus one backup)—4 flasks per strain. • 4) Seal shake flasks with sterile Suba seals. To monitor OD, take samples using a sterile syringe and needle after first swabbing the Suba seals with 70% ethanol. Monitor OD. • 5) When OD reaches 0.3, collect first sample for RNA extraction (“before” sample) into a pre-chilled falcon. Keep samples on ice. • 6) Immediately after, add 20% (v/v) BMA. Re-incubate cultures. • 7) Quickly process the samples according to the RNeasy kit protocol, until step 6 of protocol 1. Always keep samples on ice and store it at −80° C. until further use, if possible, flash freeze in liquid nitrogen it before storing. • 8) One hour after the first sample collection/BMA addition, collect the second sample for RNA extraction (“after” sample). Proceed as explained before. • 9) Continue to monitor the OD until the cultures reach 24 h. • To summarise, each strain tested will have 6 samples to send for sequencing, 3 collected right before the addition and 3 collected one hour after, plus 1 “back-up” for before and after, in case something goes wrong during extraction (8 samples total). Besides the WT strain with the addition of BMA, samples were also collected from a WT culture with no BMA, one hour after reaching OD of 0.3, as a control.
(§3) Transcription was compared for a double mutant and the wild-type in the presence and absence of BMA relative to the level in the wild type in the absence of BMA. For the avoidance of doubt the level in the table is the ratio of the level in the strain under the BMA exposure relative to the level in the wild type in the absence of added BMA.

[3] = test system: E. coli BW25113 isolate 19-marR(V84G) rpoC(R1075C) ompR(R15S) acrB(T3791) acrR(indels); assay: Growth kinetics of isolated strain 19 with 20% v/v BMA
E. coli BW 25113 = assay: Growth of E. coli BW25113 (wild type) with BMA in M9 minimal medium
[4] = test system: gene transcription in strain 21; assay: Transcriptome analysis with added BMA, strain 21
Method: as §1, §2, §3

[5] = test system: gene transcription in wild type; assay: Transcriptome analysis with added BMA, wild type
Method: as §1, §2, §3

[6] = test system: E. coli MG1655 soxR(R20H)acrR(V29G); assay: Growth in MSX medium with 20% (v/v) BMA, double mutant; assay type: cell-based, Escherichia coli
[7] = test system: E. coli MG1655 soxR(R20H)acrR(T32fs); assay: as above; assay type: cell-based, Escherichia coli
E. coli BW25113 ΔacrR = assay: Growth in MSX medium with 20% (v/v) BMA, knock-out strain; assay type: cell-based, Escherichia coli; settings: 20% (v/v) BMA added immediately after inoculation
[8] = BMA concentration increased further to 20% v/v
[9] = Wild Type, 0.05% BMA (v/v), Table 2.2
[10] = Wild Type, 0.1% BMA (v/v), Table 2.2
[11] = 20% (v/v) BMA added during mid-exponential phase
[12] = 20% (v/v) BMA added immediately after inoculation

## C=C(C)C(=O)OCCCC [BMA, butyl 2-methylprop-2-enoate]
[1]
  Growth rate: 0.532 ± 0.028 h⁻¹
  Lag time: 6 h
  Max cell concentration: 0.651 ± 0.052 g/L
E. coli MG1655; 20% (v/v) BMA added immediately after inoculation, WT
  Growth in the presence of BMA: unable to grow
E. coli MG1655; MSX medium containing 20% (v/v) BMA, 30 mL vials, 37° C., 250 rpm
  Time after which growth was observed: 72 h
[2]
  IdhA transcription level relative to wild type without BMA: 25.80
  acrA transcription level relative to wild type without BMA: 7.44
  acrB transcription level relative to wild type without BMA: 7.17
  adiY transcription level relative to wild type without BMA: 23.19
  ariR transcription level relative to wild type without BMA: 12.95
  asr transcription level relative to wild type without BMA: 225.15
  bssR transcription level relative to wild type without BMA: 71.24
  ibpA transcription level relative to wild type without BMA: 70.31
  ibpB transcription level relative to wild type without BMA: 107.99
  narG transcription level relative to wild type without BMA: 61.85
  nirB transcription level relative to wild type without BMA: 20.40
  nirD transcription level relative to wild type without BMA: 26.97
  pspA transcription level relative to wild type without BMA: 47.39
  pspB transcription level relative to wild type without BMA: 35.43
  pspD transcription level relative to wild type without BMA: 38.90
  pspc transcription level relative to wild type without BMA: 39.73
  raiA transcription level relative to wild type without BMA: 52.61
  rmf transcription level relative to wild type without BMA: 17.43
  soxS transcription level relative to wild type without BMA: 3.66
  spy transcription level relative to wild type without BMA: 45.77
  ybfA transcription level relative to wild type without BMA: 36.33
  ybhG transcription level relative to wild type without BMA: 21.92
  ybiH transcription level relative to wild type without BMA: 16.75
  ydgU transcription level relative to wild type without BMA: 94.74
  yhjx transcription level relative to wild type without BMA: 902.70
  yibT transcription level relative to wild type without BMA: 77.30
  ymgA transcription level relative to wild type without BMA: 6.44
  ymgC transcription level relative to wild type without BMA: 5.45
  ynfM transcription level relative to wild type without BMA: 61.15
  yohk transcription level relative to wild type without BMA: 19.75
[3]
  Growth rate: 0.701 ± 0.007 h⁻¹
  Lag time: 5 h
  Max cell concentration: 0.653 ± 0.023 g/L
E. coli BW 25113; 0.01% v/v BMA
  Growth rate: 0.617 ± 0.009 h⁻¹
  Lag phase: 2 h
  Max cell concentration: 1.365 ± 0.120 g/L
E. coli BW 25113; 0.05% v/v BMA
  Growth rate: 0.517 ± 0.014 h⁻¹
  Lag phase: 4 h
  Max cell concentration: 1.269 ± 0.074 g/L
E. coli BW 25113; 0.1% v/v BMA
  Growth rate: 0.519 ± 0.010 h⁻¹
  Lag phase: 12 h
  Max cell concentration: 1.335 ± 0.074 g/L
E. coli BW 25113; [8]
  Consistency of growth: growth was inconsistent
  Incubation time after which cell growth was observed: 24 to 36 h
E. coli BW 25113; M9 minimal medium, 37° C.
  BMA concentration that inhibits the growth of E. coli: above 0.05 % v/v
E. coli BW 25113; [9]
  Growth rate: 0.517 ± 0.014 h⁻¹
  Lag time: 4 h
  Max cell concentration: 1.269 ± 0.074 g/L
E. coli BW 25113; [10]
  Growth rate: 0.519 ± 0.010 h⁻¹
  Lag time: 12 h
  Max cell concentration: 1.335 ± 0.074 g/L
E. coli BW 25113; […], same conditions
  Time after inoculation at which significant growth was exhibited: 12 h
[4]
  IdhA transcription level relative to wild type without BMA: 20.48
  acrA transcription level relative to wild type without BMA: 5.63
  acrB transcription level relative to wild type without BMA: 8.93
  adiY transcription level relative to wild type without BMA: 10.74
  ariR transcription level relative to wild type without BMA: 6.13
  asr transcription level relative to wild type without BMA: 11.63
  bssR transcription level relative to wild type without BMA: 198.48
  ibpA transcription level relative to wild type without BMA: 29.21
  ibpB transcription level relative to wild type without BMA: 30.97
  narG transcription level relative to wild type without BMA: 65.34
  nirB transcription level relative to wild type without BMA: 39.43
  nirD transcription level relative to wild type without BMA: 42.50
  pspA transcription level relative to wild type without BMA: 21.16
  pspB transcription level relative to wild type without BMA: 14.98
  pspD transcription level relative to wild type without BMA: 14.80
  pspc transcription level relative to wild type without BMA: 14.67
  raiA transcription level relative to wild type without BMA: 22.55
  rmf transcription level relative to wild type without BMA: 36.77
  soxS transcription level relative to wild type without BMA: 1.08
  spy transcription level relative to wild type without BMA: 1.77
  ybfA transcription level relative to wild type without BMA: 33.06
  ybhG transcription level relative to wild type without BMA: 9.26
  ybiH transcription level relative to wild type without BMA: 7.20
  ydgU transcription level relative to wild type without BMA: 6.39
  yhjx transcription level relative to wild type without BMA: 3.11
  yibT transcription level relative to wild type without BMA: 95.47
  ymgA transcription level relative to wild type without BMA: 2.43
  ymgC transcription level relative to wild type without BMA: 1.53
  ynfM transcription level relative to wild type without BMA: 65.39
  yohk transcription level relative to wild type without BMA: 7.09
[5]
  IdhA transcription level relative to wild type without BMA: 0.59
  acrA transcription level relative to wild type without BMA: 0.64
  acrB transcription level relative to wild type without BMA: 0.98
  adiY transcription level relative to wild type without BMA: 0.19
  ariR transcription level relative to wild type without BMA: 0.44
  asr transcription level relative to wild type without BMA: 0.22
  bssR transcription level relative to wild type without BMA: 0.46
  ibpA transcription level relative to wild type without BMA: 0.09
  ibpB transcription level relative to wild type without BMA: 0.42
  narG transcription level relative to wild type without BMA: 0.40
  nirB transcription level relative to wild type without BMA: 0.06
  nirD transcription level relative to wild type without BMA: 0.57
  pspA transcription level relative to wild type without BMA: 0.04
  pspB transcription level relative to wild type without BMA: 0.73
  pspD transcription level relative to wild type without BMA: 0.14
  pspc transcription level relative to wild type without BMA: 0.10
  raiA transcription level relative to wild type without BMA: 0.11
  rmf transcription level relative to wild type without BMA: 0.28
  soxS transcription level relative to wild type without BMA: 0.24
  spy transcription level relative to wild type without BMA: 3.91
  ybfA transcription level relative to wild type without BMA: 0.39
  ybhG transcription level relative to wild type without BMA: 0.19
  ybiH transcription level relative to wild type without BMA: 0.04
  ydgU transcription level relative to wild type without BMA: 7.95
  yhjx transcription level relative to wild type without BMA: 1.72
  yibT transcription level relative to wild type without BMA: 0.09
  ymgA transcription level relative to wild type without BMA: 0.16
  ymgC transcription level relative to wild type without BMA: 6.27
  ynfM transcription level relative to wild type without BMA: 0.07
  yohk transcription level relative to wild type without BMA: 0.13
[6]; [11]
  Tolerance to BMA: enhanced tolerance to BMA compared to the soxR(R20H) mutation alone
[6]; [12]
  Growth compared with the single mutant with the soxR mutation: able to grow better than the single mutant
  Growth in the presence of BMA: able to grow
[7]; [11]
  Tolerance to BMA: enhanced tolerance to BMA compared to the soxR(R20H) mutation alone
[7]; [12]
  Growth compared with the single mutant with the soxR mutation: able to grow better than the single mutant
  Growth in the presence of BMA: able to grow
E. coli BW25113 ΔacrR
  Growth in the presence of BMA: unable to grow
